Reference: patent US20110287468A1, “METHODS AND COMPOSITIONS FOR ASSAYING ENZYMATIC ACTIVITY OF MYELOPEROXIDASE IN BLOOD SAMPLES” (General Atomics, priority 2010, published 2011)

What was measured:
Assay type in all cases: biochemical
MPO [1] = target: T1, MPO (Homo sapiens, UniProt P05164); experiment: Interference by a specific MPO inhibitor (ABAH) added to the formed dye; settings: 0.2 mM H2O2, 47 ng/mL MPO, 100 mM phosphate buffer pH 6.0-7.0; for ΔOD/min (after inhibitor): after 0.1 mM ABAH; for ΔOD/min (before inhibitor): before ABAH; for Interference by Inhibitor: 0.1 mM ABAH added to the formed dye
Method: Interference by a specific MPO inhibitor was evaluated by adding 0.1 mM of 4-aminobenzoic acid hydrazide (ABAH) to the formed dye (i.e. the colored product of the substrate oxidation) in the buffer solution. Before the addition of the inhibitor, the reaction mixture contained the chromogenic substrates, as well as 0.2 mM H2O2 (co-substrate) and 47 ng/mL MPO in 100 mM phosphate buffer (pH 6.0-7.0). Interference by the inhibitor was designated as “low” if the absorption changed by ≦0.01 ΔOD/min and “high” if the absorption changed by >0.01 ΔOD/min. The results are summarized in Tables 2 and 6, and the corresponding kinetic traces are shown on FIG. 1.

MPO [2] = target: T1, MPO; experiment: Sensitivity of chromogenic substrates: MPO peroxidase activity in buffer solution; settings: 0.24 mM H2O2, 94 ng/mL MPO, 100 mM phosphate buffer pH 6.0-7.0; for Sensitivity: class of ΔOD/min; for ΔOD/min: read at the substrate's wavelength
Description: Substrate sensitivity was designated as “high” if ΔOD/min was above 0.2, “fair” if ΔOD/min was between 0.05 and 0.2, and “poor” if ΔOD/min was below 0.05.

MPO [3] = target: T2, MPO (Homo sapiens, UniProt P05164); experiment: MPO peroxidase assay in lithium heparin plasma (Hitachi 917): effects of common plasma substances on assay performance; settings: nearly neutral pH
T2 construct: In a cuvette, 140 μL of Reagent 1 and 25 μL of plasma sample were mixed; from tissue; host or cells: human lithium heparin plasma
T2 sequence (P05164 49-745): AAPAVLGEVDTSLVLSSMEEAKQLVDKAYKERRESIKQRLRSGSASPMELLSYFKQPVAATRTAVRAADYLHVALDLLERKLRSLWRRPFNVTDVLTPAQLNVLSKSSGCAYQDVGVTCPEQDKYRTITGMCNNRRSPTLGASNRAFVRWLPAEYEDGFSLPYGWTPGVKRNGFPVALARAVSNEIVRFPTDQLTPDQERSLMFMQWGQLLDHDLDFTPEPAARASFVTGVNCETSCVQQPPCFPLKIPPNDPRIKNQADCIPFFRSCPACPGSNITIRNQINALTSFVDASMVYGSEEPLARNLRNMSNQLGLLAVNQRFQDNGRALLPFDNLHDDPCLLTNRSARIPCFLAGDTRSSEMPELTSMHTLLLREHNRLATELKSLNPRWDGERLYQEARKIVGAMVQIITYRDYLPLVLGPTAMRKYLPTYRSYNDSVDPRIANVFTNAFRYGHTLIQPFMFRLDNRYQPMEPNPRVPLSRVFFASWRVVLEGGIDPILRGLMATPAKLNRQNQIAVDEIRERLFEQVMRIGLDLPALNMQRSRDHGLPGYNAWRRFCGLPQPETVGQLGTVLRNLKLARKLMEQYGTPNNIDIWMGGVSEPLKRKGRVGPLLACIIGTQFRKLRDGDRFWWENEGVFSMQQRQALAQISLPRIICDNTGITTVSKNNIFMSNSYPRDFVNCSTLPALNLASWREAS
Method: To measure MPO peroxidase activity in blood samples, the following liquid stable, ready-to-use assay reagents were used:
The MPO peroxidase assay is formulated for use with non-hemolyzed lithium heparin plasma. No special handling or pretreatment is required. Plasma samples were collected such that testing could be performed as soon as possible after the specimen collection. Although the specimens may be refrigerated at 2-8° C. for 2-5 days, freezing plasma samples may lead to a decrease in MPO peroxidase activity.
In a cuvette, 140 μL of Reagent 1 and 25 μL of plasma sample were mixed and incubated at 37° C. for 1.5 minutes. Absorbance at 505 nm was read at about 2 minutes after the addition of 60 μL Reagent 2 as A1. The reaction was then incubated for approximately 3 more minutes, and the absorbance was read again as A2. The rate of the total peroxidation reaction was calculated as follows: Rate A=(A2−A1)/t, wherein t≈3 min
At about 5 minutes after the addition of Reagent 2, 46 μL of Reagent 3 was added to the reaction mix. Absorbance at 505 nm was read at about 2 minutes after the addition of Reagent 3 as A3. The reaction was then incubated for approximately 3 more minutes and the absorbance was read again as A4. The rate of the non-MPO peroxidation reaction was calculated as follows: Rate B=(A4−A3)/t, wherein t 3 min […]

Compound | Sensitivity (MPO [2]) | ΔOD/min (MPO [2]) | further results
3,5-Dichloro-2-hydroxybenzenesulfonate, disodium salt/4AA or 3,5-Dichloro-2-hydroxybenzenesulfonic acid/4AA [DHBS/4AA] |  |  | ΔOD/min (after inhibitor) (MPO [1]): 0.002 ΔOD/min; ΔOD/min (before inhibitor) (MPO [1]): 0.089 ΔOD/min
4-Methylcatechol/4AA [4-MC/4AA] | Poor (“poor” if ΔOD/min was below 0.05) |  | Interference by Inhibitor (MPO [1]): high numbers of false positives
CC(=O)N1c2ccc(O)cc2Oc2cc(O)ccc21 [Amplex, N-Acetyl-3,7-dihydroxyphenoxazine (Amplex ® UltraRed)] | Poor (“poor” if ΔOD/min was below 0.05) | 0.018 ΔOD/min | 
CN(C)c1ccc(N(C(=O)NCC(=O)[O-])c2ccc(N(C)C)cc2)cc1.[Na+] [DA64, N-(Carboxymethylaminocarbonyl)-4,4′-bis(dimethylamino)-diphenylamine sodium salt] | Poor (“poor” if ΔOD/min was below 0.05) | 0.0012 ΔOD/min | 
CN(C)c1ccc2c(c1)Sc1cc(N(C)C)ccc1N2C(=O)NCC(=O)[O-].[Na+] [DA67, 10-(Carboxymethylaminocarbonyl)-3,7-bis(dimethylamino)-phenothiazine sodium salt] | Poor (“poor” if ΔOD/min was below 0.05) | 0.023 ΔOD/min | 
Nc1ccc(-c2ccc(N)c(N)c2)cc1N [DAB, 3,3′-Diaminobenzidine] | Poor (“poor” if ΔOD/min was below 0.05) | 0.0093 ΔOD/min | 
COc1ccccc1O [Guaiacol, 1-Hydroxy-2-methoxybenzene; 2-Methoxyphenol] | High (“high” if ΔOD/min was above 0.2) | 0.37 ΔOD/min | 
O=N[O-].[K+] [KNO2, Potassium nitrite] | Poor (“poor” if ΔOD/min was below 0.05) | No signal | 
Cc1cc(-c2ccc(NCC(O)CS(=O)(=O)[O-])c(C)c2)ccc1NCC(O)CS(=O)(=O)[O-].[Na+].[Na+] (centres unmarked) [SAT-3, N,N′-Bis(2-hydroxy-3-sulfopropyl)tolidine, disodium salt,] | Poor (“poor” if ΔOD/min was below 0.05) | 0 ΔOD/min | 
CCCCCCCCCCCCCC[N+](C)(C)Cc1ccccc1.[Cl-] [TDBA, Tetradecyldimethylbenzylammonium chloride] | Poor (“poor” if ΔOD/min was below 0.05) | 0 ΔOD/min | 
Cc1cc(-c2cc(C)c(N)c(C)c2)cc(C)c1N [TMB, 3,3′,5,5′-Tetramethylbenzidine] | High (“high” if ΔOD/min was above 0.2) | 0.32 ΔOD/min | 
COc1cc(-c2ccc(N)c(OC)c2)ccc1N.Cl.Cl [o-dianisidine, o-Dianisidine dihydrochloride] |  |  | behaviour of the chromogenic substrate in blood samples (MPO [3]): precipitated from blood samples; Sensitivity (MPO [2]; dihydrochloride): precipitated out of solution
N,N-Bis(4-sulfobutyl)-3,5-dimethylaniline, disodium salt/4AA [MADB/4AA] | Poor (“poor” if ΔOD/min was below 0.05) | 0.04 ΔOD/min | 
N,N-Bis(4-sulfobutyl)-3-methylaniline, disodium salt (TODB)/3-Methyl-2-benzothiazolinone hydrazone (MBTH) [TODB/MBTH] | Fair (“fair” if ΔOD/min was between 0.05 and 0.2) |  | Interference by Inhibitor (MPO [1]): high numbers of false positives
N,N-Bis(4-sulfobutyl)-3-methylaniline, disodium salt/4AA [TODB/4AA] |  | 0.07 ΔOD/min | ΔOD/min (after inhibitor) (MPO [1]): 0.001 ΔOD/min; ΔOD/min (before inhibitor) (MPO [1]): 0.077 ΔOD/min
N,N-dimethylaniline (DMA)/3-Methyl-2-benzothiazolinone hydrazone (MBTH) [DMA/MBTH] | Poor (“poor” if ΔOD/min was below 0.05) |  | 
N-(2-Hydroxy-3-sulfopropyl)-3,5-dimethoxyaniline, sodium salt/4AA [HDAOS/4AA] | Poor (“poor” if ΔOD/min was below 0.05) | 0.03 ΔOD/min | 
N-Ethyl-N-(2-hydroxy-3-sulfopropyl)-3,5-dimethoxyaniline, sodium salt/4AA [DAOS/4AA] | Poor (“poor” if ΔOD/min was below 0.05) | 0.025 ΔOD/min | 
N-Ethyl-N-(2-hydroxy-3-sulfopropyl)-3,5-dimethylaniline, sodium salt, monohydrate/4AA [MAOS/4AA] | Poor (“poor” if ΔOD/min was below 0.05) | 0.045 ΔOD/min | 
N-Ethyl-N-(2-hydroxy-3-sulfopropyl)-3-methoxylaniline, sodium salt, dehydrate/4AA [ADOS/4AA] | Poor (“poor” if ΔOD/min was below 0.05) | 0.04 ΔOD/min | 
N-Ethyl-N-(2-hydroxy-3-sulfopropyl)-3-methylaniline, sodium salt, dehydrate/4-Aminoantipyrine (4AA) [TOOS/4AA] |  | 0.12 ΔOD/min | ΔOD/min (after inhibitor) (MPO [1]): 0.004 ΔOD/min; ΔOD/min (before inhibitor) (MPO [1]): 0.087 ΔOD/min
N-Ethyl-N-(3-sulfopropyl)-3-methoxyaniline, sodium salt, monohydrate/4AA [ADPS/4AA] | Poor (“poor” if ΔOD/min was below 0.05) | 0.004 ΔOD/min | 
N-Ethyl-N-(3-sulfopropyl)-3-methylaniline, sodium salt/4AA [TOPS/4AA] |  | 0.055 ΔOD/min | 
N-Ethyl-N-(3-sulfopropyl)-aniline, sodium salt (ALPS)/3-Methyl-2-benzothiazolinone hydrazone (MBTH) [ALPS/MBTH] | Fair (“fair” if ΔOD/min was between 0.05 and 0.2) |  | Interference by Inhibitor (MPO [1]): high numbers of false positives
N-Ethyl-N-(3-sulfopropyl)-aniline, sodium salt/4AA [ALPS/4AA] |  |  | ΔOD/min (after inhibitor) (MPO [1]): −0.003 ΔOD/min; ΔOD/min (before inhibitor) (MPO [1]): 0.086 ΔOD/min
